Measurements reported in patent US8501778B2, “Aralkyl piperidine derivatives and their uses as antalgic or ataractic agent” (priority 2008, dated 2013).
Counter-ions that a name gives are not always drawn. Like-named read-outs stand apart in the source and are kept apart here.

Test system: Kunming mice
Assay: Acetic Acid Twisting Method in mice (antalgic effect)
Type: in vivo
Details: Mus musculus

SMILES | inhibition in vivo at 20 mg/kg (po, 20 mg/kg, gavage administration, mice, read-out: twisting response inhibiting rate (%)) | inhibition in vivo at 20 mg/kg (sc, read-out: antalgic)
CC(=O)Oc1ccccc1C(=O)O [Aspirin, reference compound] | 90% | 
COc1ccc(CN2CCC(O)(CC(O)c3ccccc3)CC2)cc1 (stereo not shown) [Compound V-1, N-p-methoxybenzyl-4-(2-hydroxy-2-phenylethyl)-4-piperidinol hydrochloride] |  | 76%
OC(CC1(O)CCN(Cc2ccc3c(c2)OCO3)CC1)c1ccccc1 (stereo not shown) [Compound V-4, N-(benzo[d][1,3]dioxol-5-ylmethyl)-4-(2-hydroxy-2-phenylethyl)-4-piperidinol hydrochloride] |  | 76%
COc1ccccc1N1CCC(O)(CC(O)c2ccccc2)CC1 (stereo not shown) [Compound V-5, N-(2-methoxyphenyl)-4-(2-hydroxy-2-phenylethyl)-4-piperidinol hydrochloride] |  | 72%
OC(CC1(O)CCN(Cc2ccc3c(c2)CCN3)CC1)c1ccccc1 (stereo not shown) [Compound V-6, N-(5-indolinyl)methyl-4-(2-hydroxy-2-phenylethyl)-4-piperidinol hydrochloride] |  | 69%
CC(c1ccc(N2CCOCC2)cc1)N1CCC(O)(CC(O)c2ccccc2)CC1 (stereo not shown) [Compound V-8, N-(1-(4-morpholinophenyl)ethyl)-4-(2-hydroxy-2-phenylethyl)-4-piperidinol hydrochloride] |  | 77%
O=C(CC1(O)CCN(Cc2ccc(Cl)cc2)CC1)c1ccccc1 [III-2, N-p-chlorobenzyl-4-benzoylmethyl-4-piperidinol hydrochloride] |  | 14%
O=C(CC1(O)CCN(Cc2ccccn2)CC1)c1ccccc1 [III-8, N-(2-pyridyl)methyl-4-benzoylmethyl-4-piperidinol hydrochloride] |  | 77%
O=C(CC1(O)CCN(c2ncccn2)CC1)c1ccccc1 [III-9, N-(2-pyrimidinyl)-4-benzoylmethyl-4-piperidinol hydrochloride] |  | 57%
O=C(CC1(O)CCN(Cc2ncccn2)CC1)c1ccccc1 [III-10, N-(2-pyrimidinyl)methyl-4-benzoylmethyl-4-piperidinol hydrochloride] |  | 51%
O=C(CC1(O)CCN(c2ccc3ccccc3n2)CC1)c1ccccc1 [III-11, N-(2-quinolyl)-4-benzoylmethyl-4-piperidinol hydrochloride] |  | 44%
COc1ccccc1N1CCC(O)(CC(=O)c2ccccc2)CC1 [III-12, N-(2′-methoxyphenyl)-4-benzoylmethyl-4-piperidinol hydrochloride] |  | 21%
O=C(CC1(O)CCN(Cc2ccc3c(c2)OCO3)CC1)c1ccccc1 [III-13, N-(benzo[d][1,3]dioxol-5-ylmethyl)-4-benzoylmethyl-4-piperidinol hydrochloride] |  | 37%
COc1cc(CN2CCC(O)(CC(=O)c3ccccc3)CC2)cc(OC)c1OC [III-14, N-(3,4,5-trimethoxybenzyl)-4-benzoylmethyl-4-piperidinol hydrochloride] |  | 54%
CC(c1ccccc1)N1CCC(O)(CC(=O)c2ccccc2)CC1 (stereo not shown) [III-16, N-(1-phenylethyl)-4-benzoylmethyl-4-piperidinol hydrochloride] |  | 33%
C[C@H](c1ccccc1)N1CCC(O)(CC(=O)c2ccccc2)CC1 [III-17, (R)—N-(1-phenylethyl)-4-benzoylmethyl-4-piperidinol hydrochloride] |  | 66%
C[C@@H](c1ccccc1)N1CCC(O)(CC(=O)c2ccccc2)CC1 [III-18, (S)—N-(1-phenylethyl)-4-benzoylmethyl-4-piperidinol hydrochloride] |  | 84%
COc1ccc(C(C)N2CCC(O)(CC(=O)c3ccccc3)CC2)cc1 (stereo not shown) [III-19, N-(1-(4-methoxyphenyl)ethyl)-4-benzoylmethyl-4-piperidinol hydrochloride] |  | 91%
CC(c1ccc(F)cc1)N1CCC(O)(CC(=O)c2ccccc2)CC1 (stereo not shown) [III-20, N-(1-(4-fluorophenyl)ethyl)-4-benzoylmethyl-4-piperidinol hydrochloride] |  | 37%
CC(c1ccc(N)cc1)N1CCC(O)(CC(=O)c2ccccc2)CC1 (stereo not shown) [III-21, N-(1-(4-aminophenyl)ethyl)-4-benzoylmethyl-4-piperidinol hydrochloride] |  | 57%
CC(c1ccc2c(c1)OCO2)N1CCC(O)(CC(=O)c2ccccc2)CC1 (stereo not shown) [III-22, N-(1-(benzo[d][1,3]dioxol-5-yl)ethyl)-4-benzoylmethyl-4-piperidinol hydrochloride] |  | 43%
O=C(CC1(O)CCN(Cc2ccc(N3CCCC3)cc2)CC1)c1ccccc1 [III-24, N-(4-(1-pyrrolidinyl)benzyl)-4-benzoylmethyl-4-piperidinol hydrochloride] |  | 62%

SMILES | inhibition in vivo at 20 mg/kg (po, 20 mg/kg, gavage administration, mice, read-out: twisting response inhibiting rate (%)) | inhibition in vivo at 20 mg/kg (sc, read-out: antalgic)
CC(c1ccc(N2CCCC2)cc1)N1CCC(O)(CC(=O)c2ccccc2)CC1 (stereo not shown) [III-25, N-(1-(4-(1-pyrrolidinyl)phenyl)ethyl)-4-benzoylmethyl-4-piperidinol hydrochloride] |  | 80%
O=C(CC1(O)CCN(Cc2ccc(N3CCOCC3)cc2)CC1)c1ccccc1 [III-26, N-(4-morpholinobenzyl)-4-benzoylmethyl-4-piperidinol hydrochloride] |  | 64%
CC(c1ccc(N2CCOCC2)cc1)N1CCC(O)(CC(=O)c2ccccc2)CC1 (stereo not shown) [III-27, N-(1-(4-morpholinophenyl)ethyl)-4-benzoylmethyl-4-piperidinol hydrochloride] |  | 92%
O=C(CC1(O)CCN(Cc2ccc(N3CCCCC3)cc2)CC1)c1ccccc1 [III-28, N-(4-(1-piperidinyl)benzyl)-4-benzoylmethyl-4-piperidinol hydrochloride] |  | 64%
O=C1Cc2cc(CN3CCC(O)(CC(=O)c4ccccc4)CC3)ccc2N1 [III-29, N-(2-oxo-5-indolinyl)methyl-4-benzoylmethyl-4-piperidinol hydrochloride] |  | 45%
O=C(CC1(O)CCN(Cc2ccc3c(c2)CCN3)CC1)c1ccccc1 [III-30, N-(5-indolinyl)methyl-4-benzoylmethyl-4-piperidinol hydrochloride] |  | 42%
COc1ccc(C(=O)CC2(O)CCN(Cc3ccccc3)CC2)cc1 [III-32, N-benzyl-4-(p-methoxybenzoylmethyl)-4-piperidinol hydrobromide] |  | 49%
O=C(CC1(O)CCN(Cc2ccccc2)CC1)c1ccc(Cl)cc1 [III-33, N-benzyl-4-(p-chlorobenzoylmethyl)-4-piperidinol hydrobromide] |  | 26%
O=C(CC1(O)CCN(Cc2ccccc2)CC1)c1ccccn1 [III-34, N-benzyl-4-(2-pyridinylformylmethyl)-4-piperidinol hydrobromide] |  | 75%
O=C(CC1(O)CCN(Cc2ccccc2)CC1)c1ccc(N2CCCC2)cc1 [III-35, N-benzyl-4-(4-(pyrrolidinyl)benzoylmethyl)-4-piperidinol hydrochloride] |  | 64%
O=C(CC1(O)CCN(Cc2ccccc2)CC1)c1ccc(N2CCOCC2)cc1 [III-36, N-benzyl-4-((4-morpholinobenzoyl)methyl)-4-piperidinol hydrochloride] |  | 41%
O=C(CC1(O)CCN(Cc2ccccc2)CC1)c1ccc2c(c1)CCN2 [III-37, N-benzyl-4-(2-(5-indolinyl)-2-oxoethyl)-4-piperidinol hydrochloride] |  | 52%
O=C(CC1(O)CCN(Cc2ccccc2)CC1)c1ccc2c(c1)OCO2 [III-38, N-benzyl-4-(2-(benzo[d][1,3]dioxol-5-yl)-2-oxoethyl)-4-piperidinol hydrochloride] |  | 46%
CC(C(=O)c1ccccc1)C1(O)CCN(Cc2ccccc2)CC1 (stereo not shown) [III-39, N-benzyl-4-(1-benzoylethyl)-4-piperidinol hydrochloride] |  | 56%
O=C(CC1(F)CCN(Cc2ccc3c(c2)OCO3)CC1)c1ccccc1 [IX-2, N-(benzo[d][1,3]dioxol-5-ylmethyl)-4-benzoylmethyl-4-fluoropiperidine hydrochloride] |  | 45%
CC(c1ccc(N2CCOCC2)cc1)N1CCC(F)(CC(=O)c2ccccc2)CC1 (stereo not shown) [IX-3, N-(1-(4-morpholinophenyl)ethyl)-4-benzoylmethyl-4-fluoropiperidine hydrochloride] |  | 64%
CC(c1ccc(N2CCCC2)cc1)N1CCC(F)(CC(=O)c2ccccc2)CC1 (stereo not shown) [IX-4, N-(1-(4-(pyrrolidinyl)phenyl)ethyl)-4-benzoylmethyl-4-fluoropiperidine hydrochloride] |  | 64%
COc1ccc(C(C)N2CCC(Cl)(CC(=O)c3ccccc3)CC2)cc1 (stereo not shown) [IX-5, N-(1-(p-methoxyphenyl)ethyl)-4-benzoylmethyl-4-chloropiperidine hydrochloride] |  | 68%
O=C(CC1(Cl)CCN(Cc2ccc3c(c2)OCO3)CC1)c1ccccc1 [IX-6, N-(benzo[d][1,3]dioxol-5-ylmethyl)-4-benzoylmethyl-4-chloropiperidine hydrochloride] |  | 59%
COc1ccc(C(C)N2CCC(CC(=O)c3ccccc3)(OC)CC2)cc1 (stereo not shown) [VIII-2, N-(1-(p-methoxyphenyl)ethyl)-4-benzoylmethyl-4-methoxylpiperidine hydrochloride] |  | 76%
COC1(CC(=O)c2ccccc2)CCN(C(C)c2ccc(N3CCOCC3)cc2)CC1 (stereo not shown) [VIII-3, N-(1-(4-morpholinophenyl)ethyl)-4-benzoylmethyl-4-methoxylpiperidine hydrochloride] |  | 60%
